One may read the IC50 as the point on the concentration scale where inhibition reaches its midpoint.

For assay [1], the target named is T1, Human CD73 (amino acid residues 27-549) (Homo sapiens, UniProt P21589).
T1 construct: Human CD73 (amino acid residues 27-549); His tag (N); made in house; host or cells: E. coli
T1 sequence (P21589 27-549): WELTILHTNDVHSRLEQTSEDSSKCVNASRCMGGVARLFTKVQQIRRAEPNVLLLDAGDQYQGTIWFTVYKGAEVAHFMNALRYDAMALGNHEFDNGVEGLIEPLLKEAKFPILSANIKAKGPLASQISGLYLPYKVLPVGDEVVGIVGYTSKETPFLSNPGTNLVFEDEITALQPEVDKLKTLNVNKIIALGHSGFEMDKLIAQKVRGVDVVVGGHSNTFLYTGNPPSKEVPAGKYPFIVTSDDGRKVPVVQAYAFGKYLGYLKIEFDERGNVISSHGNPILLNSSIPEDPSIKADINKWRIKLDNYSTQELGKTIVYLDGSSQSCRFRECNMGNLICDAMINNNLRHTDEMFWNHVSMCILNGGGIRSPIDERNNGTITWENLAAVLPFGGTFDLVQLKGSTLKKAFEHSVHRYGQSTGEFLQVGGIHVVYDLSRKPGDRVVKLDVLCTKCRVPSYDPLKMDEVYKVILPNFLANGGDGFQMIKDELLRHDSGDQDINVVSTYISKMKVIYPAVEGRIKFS
Put plainly: CD73 enzymatic assay (luciferase-based indirect assay, CellTiter-Glo). Conditions: 0.4 nM CD73, 150 μM AMP, 1 hour at room temperature. In kind it is biochemical. The procedure, abridged: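 His-tagged human CD73 (27-549) from E. coli, 0.4 nM, with 150 μM AMP in 50 mM HEPES pH 7.4, 0.01% Tween 20; 1 h at room temperature. AMP remaining read by CellTiter-Glo 2.0 luminescence with 1 μM final ATP after 30 min. IC50 from nonlinear regression of % inhibition.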
For orientation: ATP-based viability assays read luminescence as a measure of living cells.

Another assay has as its target T2, human CD73 (Homo sapiens, UniProt P21589).
T2 construct: expressed in transfected cells
T2 sequence (P21589 27-549): T1 sequence (P21589 27-549)
Put plainly: Inhibitor activity against CD73 in cell based assay (CD73 expressing CHO-K1 cells). Conditions: CHO-K1 cells expressing human CD73, 150 μM AMP, 4 hours of incubation; read-out: CHO-K1 CELL VARIANT: CD73 IC50. A digest of the protocol: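 Stably transfected CHO-K1 cells expressing human CD73 (1×10^4/well) incubated 4 h with compound (8-point 1:3 titration, top 10 μM final, 0.2% DMSO) and 150 μM AMP. Residual AMP in supernatant measured by CellTiter-Glo luminescence with 1 μM ATP after 30 min at room temperature; IC50 by nonlinear regression of percent inhibition vs high/low controls.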

The structures appear in SMILES notation.

Turning to `Cn1ncc(N2CC[C@@H](OC(=O)N[C@H]3CC[C@H](NS(=O)(=O)c4ccccc4F)CC3)C2)c(Cl)c1=O` [P-0201, (R)-1-(5-chloro-1-methyl-6-oxo-1,6-dihydropyridazin-4-yl)pyrrolidin-3-yl ((1r,4R)-4-((2-fluorophenyl)sulfonamido)cyclohexyl)carbamate], the IC50 (in assay [1]; on human CD73) was 0.001 to 10 µM each time.
`Cn1ncc(N2CC[C@@H](OC(=O)NC3CCC(F)(F)CC3)C2)c(Cl)c1=O` [P-0202, (R)-1-(5-chloro-1-methyl-6-oxo-1,6-dihydropyridazin-4-yl)pyrrolidin-3-yl (4,4-difluorocyclohexyl)carbamate]: the half-inhibitory concentration (IC50) (in assay [1]; at human CD73) was 0.001 to 10 µM each time.
On to `CC(C)(C)C1CCC(NC(=O)O[C@@H]2CCN(c3cn[nH]c(=O)c3Cl)C2)CC1` (stereo partly drawn) [P-0203, (R)-1-(5-chloro-6-oxo-1,6-dihydropyridazin-4-yl)pyrrolidin-3-yl (4-(tert-butyl)cyclohexyl)carbamate], for which the half-inhibitory concentration (IC50) (in assay [1]; on human CD73) was 0.001 to 10 µM throughout.
As to `O=C(NC1CC2CCC1C2)O[C@@H]1CCN(c2cn[nH]c(=O)c2Cl)C1` (stereo partly drawn) [P-0204, (R)-1-(5-chloro-6-oxo-1,6-dihydropyridazin-4-yl)pyrrolidin-3-yl bicyclo[2.2.1]heptan-2-ylcarbamate], the half-maximal inhibitory concentration (IC50) (in assay [1]; on human CD73) was 0.001 to 10 µM in each case.
Regarding `O=C(NC1CCCCCC1)O[C@@H]1CCN(c2cn[nH]c(=O)c2Cl)C1` [P-0205, (R)-1-(5-chloro-6-oxo-1,6-dihydropyridazin-4-yl)pyrrolidin-3-yl cycloheptylcarbamate], the 50% inhibitory concentration (IC50) (in assay [1]; on human CD73) was 0.001 to 10 µM in each case.
As to `O=C(NC1Cc2ccccc2C1)O[C@@H]1CCN(c2cn[nH]c(=O)c2Cl)C1` [P-0206, (R)-1-(5-chloro-6-oxo-1,6-dihydropyridazin-4-yl)pyrrolidin-3-yl (2,3-dihydro-1H-inden-2-yl)carbamate], the concentration for half-maximal inhibition (IC50) (in assay [1]; on human CD73) was 0.001 to 10 µM each time.
As for `O=C(NC1CCc2[nH]ncc2C1)O[C@@H]1CCN(c2cn[nH]c(=O)c2Cl)C1` (stereo partly drawn) [P-0207, (R)-1-(5-chloro-6-oxo-1,6-dihydropyridazin-4-yl)pyrrolidin-3-yl (4,5,6,7-tetrahydro-1H-indazol-5-yl)carbamate], the 50% inhibitory concentration (IC50) (in assay [1]; on human CD73) was 0.001 to 10 µM in each case.
As for `CN1CC(NC(=O)O[C@@H]2CCN(c3cn[nH]c(=O)c3Cl)C2)CC1=O` (stereo partly drawn) [P-0208, (R)-1-(5-chloro-6-oxo-1,6-dihydropyridazin-4-yl)pyrrolidin-3-yl (1-methyl-5-oxopyrrolidin-3-yl)carbamate], the IC50 (in assay [1]; at human CD73) was 0.001 to 10 µM each time.
For the compound `CCCN1CC(NC(=O)O[C@@H]2CCN(c3cn[nH]c(=O)c3Cl)C2)CC1=O` (stereo partly drawn) [P-0209, (R)-1-(5-chloro-6-oxo-1,6-dihydropyridazin-4-yl)pyrrolidin-3-yl (5-oxo-1-propylpyrrolidin-3-yl)carbamate], the IC50 (in assay [1]; at human CD73) was 0.001 to 10 µM in each case.
On to `Cn1ncc(N2CC[C@@H](OC(=O)N[C@H]3CC[C@@H](C)CC3)C2)c(Cl)c1=O` [P-0210, (R)-1-(5-chloro-1-methyl-6-oxo-1,6-dihydropyridazin-4-yl)pyrrolidin-3-yl ((1s,4S)-4-methylcyclohexyl)carbamate], for which the concentration for half-maximal inhibition (IC50) (in assay [1]; on human CD73) was 0.001 to 10 µM in each case.
Consider `Cn1ncc(N2CC[C@@H](OC(=O)N[C@H]3CC[C@@H](NC(=O)c4ccccc4)CC3)C2)c(Cl)c1=O` [P-0211, (R)-1-(5-chloro-1-methyl-6-oxo-1,6-dihydropyridazin-4-yl)pyrrolidin-3-yl ((1s,4S)-4-benzamidocyclohexyl) carbamate], for which the IC50 (in assay [1]; at human CD73) was 0.001 to 10 µM in each case.
Regarding `O=C(NC1CC2(C1)CN(S(=O)(=O)c1ccc(F)cc1)C2)O[C@@H]1CCN(c2cn[nH]c(=O)c2Cl)C1` [P-0212, (R)-1-(5-chloro-6-oxo-1,6-dihydropyridazin-4-yl)pyrrolidin-3-yl (2-((4-fluorophenyl)sulfonyl)-2-azaspiro[3.3]heptan-6-yl)carbamate], the concentration for half-maximal inhibition (IC50) (in assay [1]; on human CD73) was 0.001 to 10 µM each time.
As to `O=CNC1CC2(C1)CC(NC(=O)O[C@@H]1CCN(c3cn[nH]c(=O)c3Cl)C1)C2` (stereo partly drawn) [P-0213, (R)-1-(5-chloro-6-oxo-1,6-dihydropyridazin-4-yl)pyrrolidin-3-yl (6-formamidospiro[3.3]heptan-2-yl)carbamate], the IC50 (in assay [1]; at human CD73) was 0.001 to 10 µM each time.
Take `O=C(Nc1ccc(F)cc1)NC1CC2(C1)CC(NC(=O)O[C@@H]1CCN(c3cn[nH]c(=O)c3Cl)C1)C2` (stereo partly drawn) [P-0214, (R)-1-(5-chloro-6-oxo-1,6-dihydropyridazin-4-yl)pyrrolidin-3-yl (6-(3-(4-fluorophenyl)ureido)spiro[3.3]heptan-2-yl)carbamate]: the half-maximal inhibitory concentration (IC50) (in assay [1]; at human CD73) was 0.001 to 10 µM in each case.
Regarding `CCC(CC)NC(=O)O[C@@H]1CCN(c2cn[nH]c(=O)c2Cl)C1` [P-0215, (R)-1-(5-chloro-6-oxo-1,6-dihydropyridazin-4-yl)pyrrolidin-3-yl pentan-3-ylcarbamate], the 50% inhibitory concentration (IC50) (in assay [1]; at human CD73) was 0.001 to 10 µM each time.
As for `Cn1ncc(N2CC[C@@H](OC(=O)N[C@H]3CC[C@H](NS(=O)(=O)c4ccc(F)cc4)CC3)C2)c(Cl)c1=O` [P-0216, (R)-1-(5-chloro-1-methyl-6-oxo-1,6-dihydropyridazin-4-yl)pyrrolidin-3-yl ((1r,4R)-4-((4-fluorophenyl)sulfonamido)cyclohexyl)carbamate], the IC50 (in assay [1]; on human CD73) was 0.001 to 10 µM each time.
As for `Cn1ncc(N2CC[C@@H](OC(=O)N[C@H]3CC[C@H](NC(=O)c4ccccc4)CC3)C2)c(Cl)c1=O` [P-0217, (R)-1-(5-chloro-1-methyl-6-oxo-1,6-dihydropyridazin-4-yl)pyrrolidin-3-yl ((1r,4R)-4-benzamidocyclohexyl) carbamate], the IC50 (in assay [1]; at human CD73) was 0.001 to 10 µM in each case.
As to `Cn1ncc(N2CC[C@@H](OC(=O)N[C@H]3CC[C@H](NS(=O)(=O)NC4CCCC4)CC3)C2)c(Cl)c1=O` [P-0218, (R)-1-(5-chloro-1-methyl-6-oxo-1,6-dihydropyridazin-4-yl)pyrrolidin-3-yl ((1r,4R)-4-((N-cyclopentylsulfamoyl)amino)cyclohexyl)carbamate], the 50% inhibitory concentration (IC50) (in assay [1]; on human CD73) was 0.001 to 10 µM each time.
On to `CC(C)(C)c1nnc(NC(=O)O[C@@H]2CCN(c3cn[nH]c(=O)c3Cl)C2)s1` [P-0219, (R)-1-(5-chloro-6-oxo-1,6-dihydropyridazin-4-yl)pyrrolidin-3-yl (5-(tert-butyl)-1,3,4-thiadiazol-2-yl)carbamate], for which the IC50 (in assay [1]; at human CD73) was 10 to 100 µM in each case.
As for `Cc1cc(NC(=O)O[C@@H]2CCN(c3cn[nH]c(=O)c3Cl)C2)no1` [P-0220, (R)-1-(5-chloro-6-oxo-1,6-dihydropyridazin-4-yl)pyrrolidin-3-yl (5-methylisoxazol-3-yl)carbamate], the 50% inhibitory concentration (IC50) (in assay [1]; on human CD73) was 0.001 to 10 µM throughout.
With `Cc1nc(NC(=O)O[C@@H]2CCN(c3cn[nH]c(=O)c3Cl)C2)sc1C` [P-0221, (R)-1-(5-chloro-6-oxo-1,6-dihydropyridazin-4-yl)pyrrolidin-3-yl (4,5-dimethylthiazol-2-yl)carbamate], the IC50 (in assay [1]; on human CD73) was 10 to 100 µM throughout.
Consider `Cn1cc(NC(=O)O[C@@H]2CCN(c3cn[nH]c(=O)c3Cl)C2)cn1` [P-0222, (R)-1-(5-chloro-6-oxo-1,6-dihydropyridazin-4-yl)pyrrolidin-3-yl (1-methyl-1H-pyrazol-4-yl)carbamate], for which the 50% inhibitory concentration (IC50) in assay [1] fell in the range of 0.001 to 10 µM; on human CD73 it was 10 to 100 µM.
Regarding `O=C(NCc1cc(C2CC2)[nH]n1)O[C@@H]1CCN(c2cn[nH]c(=O)c2Cl)C1` [P-0223, (R)-1-(5-chloro-6-oxo-1,6-dihydropyridazin-4-yl)pyrrolidin-3-yl ((5-cyclopropyl-1H-pyrazol-3-yl)methyl)carbamate], the IC50 (in assay [1]; on human CD73) was 10 to 100 µM in each case.
`O=C(Nc1cnn2cccnc12)O[C@@H]1CCN(c2cn[nH]c(=O)c2Cl)C1` [P-0224, (R)-1-(5-chloro-6-oxo-1,6-dihydropyridazin-4-yl)pyrrolidin-3-yl pyrazolo[1,5-a]pyrimidin-3-ylcarbamate]: the 50% inhibitory concentration (IC50) in assay [1] fell in the range of 0.001 to 10 µM; on human CD73, 10 to 100 µM.
In the case of `O=C(Nc1ncco1)O[C@@H]1CCN(c2cn[nH]c(=O)c2Cl)C1` [P-0225, (R)-1-(5-chloro-6-oxo-1,6-dihydropyridazin-4-yl)pyrrolidin-3-yl oxazol-2-ylcarbamate], the IC50 in assay [1] was 0.001 to 10 µM; on human CD73, 10 to 100 µM.

(Values after patent US12509444B2, “Compounds and methods for CD73 modulation and indications therefor” (Plexxikon Inc., priority 2019, dated 2025).)
